The results in this text go back to patent publication US20230391786A1, “cGAS INHIBITORS” (Eli Lilly and Company, priority 2022, published 2023).

In one assay the target is recombinant human cGAS (Homo sapiens (Human), UniProt Q8N884). As to the kind of experiment: In vitro inhibition assay of cGAS activity (cGAMP production, RapidFire mass spectrometry). The settings on record: 10 nM recombinant human cGAS, 60 nM 75-bp dsDNA, ATP, GTP, room temperature 3 hours, read-out: IC50 (μM), In vitro inhibition assay for Compounds 95-348. The format is biochemical. An outline of the steps:
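Product cGAMP was quantified by RapidFire MS against a difluoro-cGAMP internal standard after a formic acid quench. The reaction contained 10 nM recombinant full-length human cGAS, 75-bp dsDNA (60 nM), ATP and GTP (50 μM) and ran for 3 h at room temperature. IC50 values came from 4-parameter nonlinear regression.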

The test system of assay [1] is cGAS activity in THP1 cells (IFNb as marker). In words: Cellular assay to measure cGAS activity (IFNb production in PMA-differentiated THP1 cells stimulated by RDG-Adenovirus-GFP). The format is cell-based, human. The settings on record: Homo sapiens, THP-1, THP1 cells, PMA differentiated, RDG-Adenovirus-GFP 1000 MOI, IFNb AlphaLISA, overnight incubation; read-out: IC50 (μM), Cellular assay for Compounds 95-348. An outline of the steps:
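The readout is secreted IFNb measured by AlphaLISA after overnight compound exposure. THP1 cells, differentiated with PMA for 24 h and rested overnight, were infected with RDG-Adenovirus-GFP (1000 MOI, 4 h) before compounds were added; IC50 came from a 4-parameter logistic fit of inhibition against log concentration.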
A general note: Alpha assays give light when donor and acceptor beads are brought close together.

Sequence of recombinant human cGAS (Q8N884 whole entry): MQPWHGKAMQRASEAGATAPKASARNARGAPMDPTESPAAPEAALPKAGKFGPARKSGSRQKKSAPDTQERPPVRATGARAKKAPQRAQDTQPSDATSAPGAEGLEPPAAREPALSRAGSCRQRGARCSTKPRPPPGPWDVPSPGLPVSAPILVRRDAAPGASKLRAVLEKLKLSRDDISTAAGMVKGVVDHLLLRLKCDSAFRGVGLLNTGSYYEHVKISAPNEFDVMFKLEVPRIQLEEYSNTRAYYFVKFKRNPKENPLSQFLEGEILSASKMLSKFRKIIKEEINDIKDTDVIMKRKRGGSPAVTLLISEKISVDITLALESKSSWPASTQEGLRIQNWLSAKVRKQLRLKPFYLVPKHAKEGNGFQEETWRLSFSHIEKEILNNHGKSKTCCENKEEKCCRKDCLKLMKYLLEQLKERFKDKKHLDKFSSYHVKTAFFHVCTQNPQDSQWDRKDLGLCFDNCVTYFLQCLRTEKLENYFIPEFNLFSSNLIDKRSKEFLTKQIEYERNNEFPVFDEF

A word on the IC50: it is the concentration needed to halve the response being measured. For `N#CCOc1cc(Cl)c(Cl)c2c1c(-c1cn[nH]c1)c1n2CCN(C(=O)c2cnccn2)C1` [Example 286, 2-((6,7-Dichloro-2-(pyrazine-2-carbonyl)-10-(1H-pyrazol-4-yl)-1,2,3,4-tetrahydropyrazino[1,2-a]indol-9-yl)oxy)acetonitrile], the half-inhibitory concentration (IC50) worked out at 0.0131 µM on recombinant human cGAS and 0.455 µM in assay [1].
As for `N#CCOc1cc(Cl)c(Cl)c2c1c(-c1cn[nH]c1)c1n2CCN(C(=O)Cn2cncn2)C1` [Example 287, 2-((2-(2-(1H-1,2,4-Triazol-1-yl)acetyl)-6,7-dichloro-10-(1H-pyrazol-4-yl)-1,2,3,4-tetrahydropyrazino[1,2-a]indol-9-yl)oxy)acetonitrile], the IC50 at recombinant human cGAS is 0.0203 µM; in assay [1], 5.11 µM.
For `N#CCOc1cc(Cl)c(Cl)c2c1c(-c1cn[nH]c1)c1n2CCN(C(=O)C2COCCO2)C1` (centres unmarked) [Example 288, 2-((6,7-Dichloro-2-(1,4-dioxane-2-carbonyl)-10-(1H-pyrazol-4-yl)-1,2,3,4-tetrahydropyrazino[1,2-a]indol-9-yl)oxy)acetonitrile], the IC50 amounted to 0.0242 µM at recombinant human cGAS and 0.56 µM in assay [1].
In the same order, the values of `N#CCOc1cc(Cl)c(Cl)c2c1c(-c1cn[nH]c1)c1n2CCN(C(=O)CN2CCOCC2)C1` [Example 289, 2-((6,7-Dichloro-2-(2-morpholinoacetyl)-10-(1H-pyrazol-4-yl)-1,2,3,4-tetrahydropyrazino[1,2-a]indol-9-yl)oxy)acetonitrile] are 0.0303 µM and 3.73 µM.
In the same order, the values of `N#CCOc1cc(Cl)c(Cl)c2c1c(-c1cn[nH]c1)c1n2CCN(C(=O)CN2CCOCC2=O)C1` [Example 290, 2-((6,7-Dichloro-2-(2-(3-oxomorpholino)acetyl)-10-(1H-pyrazol-4-yl)-1,2,3,4-tetrahydropyrazino[1,2-a]indol-9-yl)oxy)acetonitrile] are 0.0321 µM and 6.97 µM.
For the compound `CN1CC(C(=O)N2CCn3c(c(-c4cn[nH]c4)c4c(OCC#N)cc(Cl)c(Cl)c43)C2)CC1=O` (centres unmarked) [Example 291, 2-((6,7-Dichloro-2-(1-methyl-5-oxopyrrolidine-3-carbonyl)-10-(1H-pyrazol-4-yl)-1,2,3,4-tetrahydropyrazino[1,2-a]indol-9-yl)oxy)acetonitrile], the IC50 on recombinant human cGAS was determined as 0.0325 µM; in assay [1] it was 4.91 µM.
In the same order, the values of `N#CCOc1cc(Cl)c(Cl)c2c1c(-c1cn[nH]c1)c1n2CCN(C(=O)CCn2cncn2)C1` [Example 292, 2-((2-(3-(1H-1,2,4-Triazol-1-yl)propanoyl)-6,7-dichloro-10-(1H-pyrazol-4-yl)-1,2,3,4-tetrahydropyrazino[1,2-a]indol-9-yl)oxy)acetonitrile] are 0.0365 µM and 4.08 µM.
In the same order, the values of `Cc1nc(C)n(CC(=O)N2CCn3c(c(-c4cn[nH]c4)c4c(OCC#N)cc(Cl)c(Cl)c43)C2)n1` [Example 293, 2-((6,7-Dichloro-2-(2-(3,5-dimethyl-1H-1,2,4-triazol-1-yl)acetyl)-10-(1H-pyrazol-4-yl)-1,2,3,4-tetrahydropyrazino[1,2-a]indol-9-yl)oxy)acetonitrile] are 0.0447 µM and greater than 10 µM.
In the same order, the values of `CN1CCOC(C(=O)N2CCn3c(c(-c4cn[nH]c4)c4c(OCC#N)cc(Cl)c(Cl)c43)C2)C1` (centres unmarked) [Example 294, 2-((6,7-Dichloro-2-(4-methylmorpholine-2-carbonyl)-10-(1H-pyrazol-4-yl)-1,2,3,4-tetrahydropyrazino[1,2-a]indol-9-yl)oxy)acetonitrile] are 0.0479 µM and 0.366 µM.
`N#CCOc1cc(Cl)c(Cl)c2c1c(-c1cn[nH]c1)c1n2CCN(C(=O)c2nccnc2C(=O)N2CCCCC2)C1` [Example 295, 2-((6,7-Dichloro-2-(3-(piperidine-1-carbonyl)pyrazine-2-carbonyl)-10-(1H-pyrazol-4-yl)-1,2,3,4-tetrahydropyrazino[1,2-a]indol-9-yl)oxy)acetonitrile]: the IC50 at recombinant human cGAS is 0.0561 µM; in assay [1] it was 2.14 µM.
In the same order, the values of `N#CCOc1cc(Cl)c(Cl)c2c1c(-c1cn[nH]c1)c1n2CCN(C(=O)c2nccnc2C(=O)N2CCOCC2)C1` [Example 296, 2-((6,7-Dichloro-2-(3-(morpholine-4-carbonyl)pyrazine-2-carbonyl)-10-(1H-pyrazol-4-yl)-1,2,3,4-tetrahydropyrazino[1,2-a]indol-9-yl)oxy)acetonitrile] are 0.061 µM and 4.78 µM.
In the same order, the values of `NC(=O)CCC(=O)N1CCn2c(c(-c3cn[nH]c3)c3ccc(Cl)c(Cl)c32)C1` [Example 297, 4-(6,7-Dichloro-10-(1H-pyrazol-4-yl)-3,4-dihydropyrazino[1,2-a]indol-2(1H)-yl)-4-oxobutanamide] are 0.0251 µM and greater than 10 µM.
In the same order, the values of `O=C(CC1COCCOC1)N1CCn2c(c(-c3cn[nH]c3)c3ccc(Cl)c(Cl)c32)C1` [Example 298, 1-(6,7-Dichloro-10-(1H-pyrazol-4-yl)-3,4-dihydropyrazino[1,2-a]indol-2(1H)-yl)-2-(1,4-dioxepan-6-yl)ethan-1-one] are 0.0234 µM and greater than 10 µM.
Turning to `O=C(CC1COCCO1)N1CCn2c(c(-c3cn[nH]c3)c3ccc(Cl)c(Cl)c32)C1` (centres unmarked) [Example 299, 1-(6,7-Dichloro-10-(1H-pyrazol-4-yl)-3,4-dihydropyrazino[1,2-a]indol-2(1H)-yl)-2-(1,4-dioxan-2-yl)ethan-1-one], the figures for the IC50 (on recombinant human cGAS; in assay [1]) were 0.0257 µM and greater than 10 µM, respectively.
In the same order, the values of `CN1CCC(CC(=O)N2CCn3c(c(-c4cn[nH]c4)c4ccc(Cl)c(Cl)c43)C2)C1=O` (centres unmarked) [Example 300, 3-(2-(6,7-Dichloro-10-(1H-pyrazol-4-yl)-3,4-dihydropyrazino[1,2-a]indol-2(1H)-yl)-2-oxoethyl)-1-methylpyrrolidin-2-one] are 0.0288 µM and greater than 10 µM.
As for `CN(C)C(=O)COCC(=O)N1CCn2c(c(-c3cn[nH]c3)c3ccc(Cl)c(Cl)c32)C1` [Example 301, 2-(2-(6,7-Dichloro-10-(1H-pyrazol-4-yl)-3,4-dihydropyrazino[1,2-a]indol-2(1H)-yl)-2-oxoethoxy)-N,N-dimethylacetamide], the figures for the IC50 (on recombinant human cGAS; in assay [1]) were 0.0291 µM and greater than 10 µM, respectively.
Consider `CN(C)C(=O)CC(=O)N1CCn2c(c(-c3cn[nH]c3)c3ccc(Cl)c(Cl)c32)C1` [Example 302, 3-(6,7-Dichloro-10-(1H-pyrazol-4-yl)-3,4-dihydropyrazino[1,2-a]indol-2(1H)-yl)-N,N-dimethyl-3-oxopropanamide], for which the IC50 was 0.0323 µM at recombinant human cGAS and 6.95 µM in assay [1].
In the same order, the values of `CN1CCC(C(=O)N2CCn3c(c(-c4cn[nH]c4)c4ccc(Cl)c(Cl)c43)C2)CC1=O` (centres unmarked) [Example 303, 4-(6,7-Dichloro-10-(1H-pyrazol-4-yl)-1,2,3,4-tetrahydropyrazino[1,2-a]indole-2-carbonyl)-1-methylpiperidin-2-one] are 0.0349 µM and greater than 10 µM.
For the compound `O=C1COCCN1CCC(=O)N1CCn2c(c(-c3cn[nH]c3)c3ccc(Cl)c(Cl)c32)C1` [Example 304, 4-(3-(6,7-Dichloro-10-(1H-pyrazol-4-yl)-3,4-dihydropyrazino[1,2-a]indol-2(1H)-yl)-3-oxopropyl)morpholin-3-one], the IC50 at recombinant human cGAS is 0.0351 µM; in assay [1], 8.47 µM.
In the same order, the values of `CN1CC(C(=O)N2CCn3c(c(-c4cn[nH]c4)c4ccc(Cl)c(Cl)c43)C2)CCC1=O` (centres unmarked) [Example 305, 5-(6,7-Dichloro-10-(1H-pyrazol-4-yl)-1,2,3,4-tetrahydropyrazino[1,2-a]indole-2-carbonyl)-1-methylpiperidin-2-one] are 0.0378 µM and greater than 10 µM.
In the same order, the values of `COCCOCC(=O)N1CCn2c(c(-c3cn[nH]c3)c3ccc(Cl)c(Cl)c32)C1` [Example 306, 1-(6,7-Dichloro-10-(1H-pyrazol-4-yl)-3,4-dihydropyrazino[1,2-a]indol-2(1H)-yl)-2-(2-methoxyethoxy)ethan-1-one] are 0.0379 µM and greater than 10 µM.
In the same order, the values of `O=C(CN1C(=O)CSC1=O)N1CCn2c(c(-c3cn[nH]c3)c3ccc(Cl)c(Cl)c32)C1` [Example 307, 3-(2-(6,7-Dichloro-10-(1H-pyrazol-4-yl)-3,4-dihydropyrazino[1,2-a]indol-2(1H)-yl)-2-oxoethyl)thiazolidine-2,4-dione] are 0.0398 µM and greater than 10 µM.
With `CC(=O)N(C)CCC(=O)N1CCn2c(c(-c3cn[nH]c3)c3ccc(Cl)c(Cl)c32)C1` [Example 308, N-(3-(6,7-Dichloro-10-(1H-pyrazol-4-yl)-3,4-dihydropyrazino[1,2-a]indol-2(1H)-yl)-3-oxopropyl)-N-methylacetamide], the IC50 was determined as 0.0423 µM on recombinant human cGAS and 7.9 µM in assay [1].
As to `CN1CCOCC1C(=O)N1CCn2c(c(-c3cn[nH]c3)c3ccc(Cl)c(Cl)c32)C1` (centres unmarked) [Example 309, (6,7-Dichloro-10-(1H-pyrazol-4-yl)-3,4-dihydropyrazino[1,2-a]indol-2(1H)-yl)(4-methylmorpholin-3-yl)methanone], the IC50 at recombinant human cGAS was 0.0427 µM; in assay [1] it was greater than 10 µM.
In the same order, the values of `O=C(C1COCCOC1)N1CCn2c(c(-c3cn[nH]c3)c3ccc(Cl)c(Cl)c32)C1` [Example 310, (6,7-Dichloro-10-(1H-pyrazol-4-yl)-3,4-dihydropyrazino[1,2-a]indol-2(1H)-yl)(1,4-dioxepan-6-yl)methanone] are 0.0428 µM and greater than 10 µM.
